Reference: patent US12616751B2, “Photosensitizing antibody-fluorophore conjugates” (The USA, as represented by the Secretary, Department of …, priority 2010, dated 2026)

What was measured:
[1] = IR700 at absorption maximum 689 nm; Photofrin 630 nm; Foscan 652 nm; NPe6 654 nm; cited from earlier work
[2] = Extinction coefficient of photosensitizers; format: physicochemical
From the text: Currently commercially available from LI-COR (Lincoln, Nebr.). IR700 has several favorable chemical properties. Amino-reactive IR700 is a relatively hydrophilic dye and can be covalently conjugated with an antibody using the NHS ester of IR700. IR700 also has more than 5-fold higher extinction coefficient (2.1×10^5 M^−1cm^−1 at the absorption maximum of 689 nm), than conventional photosensitizers such as the hematoporphyrin derivative Photofrin® (1.2×10^3 M^−1cm^−1 at 630 nm), meta-tetrahydroxyphenylchlorin; Foscan® (2.2×10^4 M^−1cm^−1 at 652 nm), and mono-L-aspartylchlorin e6; NPe6/Laserphyrin® (4.0×10^4 M^−1cm^−1 at 654 nm).

[3] = Excretion of free and catabolized IR700; settings: in vivo
3T3/HER2+ cells = assay: Photoimmunotherapy (PIT) phototoxicity, LIVE/DEAD assay; format: cell-based; settings: 200 nM, equivalent IR700 concentration of conjugate
Procedure: Cells were grown in RPMI 1640 supplemented with 10% fetal bovine serum and 1% penicillin/streptomycin in tissue culture flasks in a humidified incubator at 37° C. in an atmosphere of 95% air and 5% carbon dioxide.
Culture medium was replaced with phenol red-free medium after washing with phosphate buffered saline (PBS).

MDA-MB-468 tumors = assay: In vivo delivery of Pan-IR800 after Pan-IR700 PIT; parameters: species or system mice; settings: 50 J/cm2 to right side tumor; agent 1 h after PIT
From the text: In vivo fluorescence imaging. Five days after injection of two million A431 or 3T3-HER2 cells in right and left dorsums, and seven days after MDA-MB-468 cells injection in mammary pads, tumor volumes of approximately 75 mm^3 were selected. Signals of IR700 and IR800 was detected with a fluorescence camera (Pearl Imager, LI-COR Biosciences) using the 700 and 800 nm fluorescence channel Qdot800 was detected with Maestro in vivo Imaging System (CRi) using a band-pass filter, which ranges between 575 to 605 nm (excitation) and a long-pass NIR filter over 800 nm (emission). Fluorescence images of daunorubicin were also obtained with Maestro using a band-pass filter from 503 to 555 nm (excitation) and a long-pass green filter over 580 nm (emission). The tunable emission filter was automatically stepped in 10 nm increments from 650 to 950 nm and from 500 to 800 nm for the NIR and green filter sets at constant exposure. The spectral fluorescence images consist of autofluorescence spectra and the spectra from Qdot800 and daunorubicin, which were then unmixed, based on their spectral patterns using commercial software (Maestro software; CRi). Mice were sacrificed with carbon dioxide immediately after in vivo imaging. The tumors were excised, and frozen or paraffin-embedded for histological study and fluorescence microscopy study after ex vivo imaging. […]

A431 tumors = assay: In vivo nanodrug-delivery after PIT (super EPR); parameters: species or system mice
Procedure: In vivo nanodrug-delivery after photoimmunotherapy. Six-week-old to 8-week-old female homozygote athymic nude mice were purchased from Charles River (National Cancer Institute Frederick). During treatment, mice were anesthetized with isoflurane. Two million A431 cells were injected subcutaneously in the right and left dorsums of each mouse. Five days after cell injection, 100 μg of Pan-IR700 was administered intravenously, and 1 day later, either side of tumor was irradiated with NIR light from a red-light-emitting diode at wavelengths of 670-690 nm and a power density of 10-100 J cm^−2, as measured with an optical power meter (PM 100 (Thorlabs)). One hour after PIT, Pan-IR800 (100 μg), Qtracker 800 Non-Targeted Quantum dots (32.5 pmol), or DaunoXome (30 mg kg^−1) were injected intravenously, and the in vivo fluorescence images were obtained with a Pearl Imager (LI-COR Biosciences) and a Maestro Imager (CRi). For MR imaging, SPIO (Feridex) was administered intravenously 1 h post-PIT and MR images were obtained. The tumors were excised, and frozen or paraffin-embedded for histological study and fluorescence microscopy study after ex vivo imaging.
In vivo fluorescence imaging. Five days after injection of two million A431 or 3T3-HER2 cells in right and left dorsums, and seven days after MDA-MB-468 cells injection in mammary pads, tumor volumes of approximately 75 mm^3 were selected. Signals of IR700 and IR800 was detected with a fluorescence camera (Pearl Imager, LI-COR Biosciences) using the 700 and 800 nm fluorescence channel Qdot800 was detected with Maestro in vivo Imaging System (CRi) using a band-pass filter, which ranges between 575 to 605 nm (excitation) and a long-pass NIR filter over 800 nm (emission). Fluorescence images of daunorubicin were also obtained with Maestro using a band-pass filter from 503 to 555 nm (excitation) and a long-pass green filter over 580 nm (emission). The tunable emission filter was automatically stepped in 10 nm increments from 650 to 950 nm and from 500 to 800 nm for the NIR and green filter sets at constant exposure. The spectral fluorescence images consist of autofluorescence spectra and the spectra from Qdot800 and daunorubicin, which were then unmixed, based on their spectral patterns using commercial software (Maestro software; CRi). Mice were sacrificed with carbon dioxide immediately after in vivo imaging. The tumors were excised, and frozen or paraffin-embedded for histological study and fluorescence microscopy study after ex vivo imaging.
Fluorescence microscopy. Ten-μm-thick frozen or paraffin sections were prepared and fluorescence in tumor sections was detected using an Olympus BX81 microscope (Olympus America, Inc., Melville, N.Y.) equipped with the following filters: excitation wavelength 590 to 650 nm, and 480 to 550 nm, emission wavelength 662.5 to 747.5 nm, 765 to 855 nm, and 590 nm long pass for IR700, Qdot800, and daunorubicin, respectively. Transmitted light differential interference contrast images were also acquired. H&E staining and Prussian Blue staining were performed according to standard protocol.
Optimal timing of second shot. To determine the optimal timing of second shot, Pan-IR800 (100 μg) was administered intravenously into A431 bearing mice at 1, 6, and 24 h after PIT treatment, and the dynamic imaging for 1 h was carried out with Pearl Imager according to the protocol described above.

Oc1cccc(-c2c3nc(c(-c4cccc(O)c4)c4ccc([nH]4)c(-c4cccc(O)c4)c4nc(c(-c5cccc(O)c5)c5ccc2[nH]5)CC4)C=C3)c1 [Foscan®, meta-tetrahydroxyphenylchlorin]
extinction coefficient [1]: 22000 M⁻¹ cm⁻¹

C=Cc1c(C)c2cc3nc(c(CC(=O)N[C@@H](CC(=O)[O-])C(=O)[O-])c4[nH]c(cc5nc(cc1[nH]2)C(C)=C5CC)c(C)c4C(=O)[O-])[C@@H](CCC(=O)[O-])[C@@H]3C.[Na+].[Na+].[Na+].[Na+] [NPe6/Laserphyrin®, mono-L-aspartylchlorin e6]
extinction coefficient [1]: 40000 M⁻¹ cm⁻¹

IRDye® 700DX [IR700]
extinction coefficient higher than conventional photosensitizers [2]: more than 5 fold
organ accumulation [3]: without accumulation in any specific organ
time to excretion into urine [3]: ≤ 1 h
extinction coefficient [1]: 210000 M⁻¹ cm⁻¹
phototoxicity of dye alone (3T3/HER2+ cells): did not incorporate into the cells or induce phototoxcity in cells

Pan-IR800: panitumumab conjugated to IRDye 800CW
tumor shown in dynamic images (MDA-MB-468 tumors): only the right sided tumor was clearly shown up within 10 min
change of perfusion by PIT with time after treatment (A431 tumors; Pan-IR800 given 1, 6, and 24 h after PIT): completely stopped within 24 h
uptake/signal in control tumors without NIR light (A431 tumors; agent i.v. 1 h after PIT of contralateral tumor): no change on signal intensities
accumulation in PIT-treated tumors (A431 tumors; agent i.v. 1 h after Pan-IR700 PIT): facilitated the permeability
signal intensities in PIT-treated tumors versus light dose (A431 tumors; mouse, in vivo): increased with time in a light dose-dependent manner
tumor uptake when given 24 h after PIT (A431 tumors; mouse, in vivo): cannot be taken up by the tumor

Photofrin®
extinction coefficient [1]: 1200 M⁻¹ cm⁻¹
